Where two headings read alike, the source gives them in different places.
Legend:
HCV = settings: cited from earlier work
in vitro [1] = settings: human
PI3P = format: cell-based
in vitro [2] = settings: human; remark: listed apart in the source
in vitro [3] = settings: human; remark: listed apart in the source
HCV reporter virus JcR2a = format: cell-based, hepatitis C virus; settings: HCV infection system, Huh7-derived cells expressing CD81
SARS-CoV-2 [4] = test: qRT-PCR-based SARS-CoV-2 replication assay in Calu-3 cells; format: cell-based
PI4P = format: cell-based; settings: Huh7-Lunet/T7 cells expressing HCV NS3-5B, 1 µM for 2 h
[5] = tested on: HA-nsp3-4-V5-induced DMVs; format: cell-based
SARS-CoV-2 [6] = tested on: SARS-CoV-2
SARS-CoV-2 [7] = test: microbe, parasite or virus in culture; settings: Severe acute respiratory syndrome coronavirus 2, A549-ACE2, read-out: EC50, SARS-CoV-2

In the case of `COC[C@H]1OC(=O)c2coc3c2[C@@]1(C)C1=C(C3=O)[C@@H]2CCC(=O)[C@@]2(C)C[C@H]1OC(C)=O` [wortmannin], the HCV replication (HCV; inhibition of PI3K activity, ref Mohl et al., 2016) is given as “impairs”.
For `Cn1cnc(N)c2ncnc1-2` [3-methyladenine], the “abundance of LC3-II in HCV-infected cells” value (HCV; PI3K inhibitor, ref Su et al., 2011) is listed as “reduces”.
Work on `CCC(CC)COC(=O)[C@H](C)N[P@](=O)(OC[C@H]1O[C@@](C#N)(c2ccc3c(N)ncnn23)[C@H](O)[C@@H]1O)Oc1ccccc1` [Remdesivir] yielded a CC50 (in vitro [1]) of over 10 µM.
In the case of `COC(=O)N[C@H](C(=O)N1CCC[C@H]1c1nc(-c2ccc(-c3ccc(-c4c[nH]c([C@@H]5CCCN5C(=O)[C@@H](NC(=O)OC)C(C)C)n4)cc3)cc2)c[nH]1)C(C)C` [Daclatasvir], the “number of GFP-DFCP1 puncta in NS3-5B-expressing cells (NS5A wildtype)” value (PI3P) is listed as “blunted”, the “reduction of GFP-DFCP1 abundance in cells expressing NS3-5B with NS5A Y93H” value (PI3P) is listed as “not observed” and the DMV formation (HCV; NS5A inhibitor, ref Berger et al., 2014) is listed as “block”. The CC50 (in vitro [2]) was over 25 nM and the CC50 (in vitro [3]) was over 25 nM.
For `Nc1ncc(-c2ccnc(Nc3ccncc3)n2)c(CC2CC2)n1` [PIK-III], the “selectivity index (ratio of EC50 and CC50)” value (HCV reporter virus JcR2a) was over 10, the SARS-CoV-2 replication efficiency (SARS-CoV-2 [4]) was “inhibition” and the “elevation of PI4P (PI4P puncta)” value (PI4P) was “no effect”. The “abundance of GFP-DFCP1 puncta in SARS-CoV-2-infected cells” value (PI3P) was “reduced”, the “abundance of GFP-DFCP1 puncta in starved cells” value (PI3P) was “reduced to background levels” and the “number of GFP-DFCP1 puncta in HCV-replicating cells” value (PI3P) was “diminished”. For the same compound, the “number of HA-nsp3-4-V5-induced DMVs” value [5] was “significantly reduced”, the “fold by which EC50 is below the CC50 value” (SARS-CoV-2 [6]; A549/ACE2 cells) was at least 250 fold and the EC50 (SARS-CoV-2 [6]; read-out: EC50, SARS-CoV-2) was 172 nM. For the same compound, the “cell viability in HCV NS3-5B-transfected cells” value (Huh7-Lunet/T7 cells) was “neither affected”, the “cell viability in SARS-CoV-2 HA-nsp3-4-V5-transfected cells” value (Huh7-Lunet/T7 cells) was “did not affect” and the EC50 (SARS-CoV-2 [7]) was about 170 nM.

From article PMC8577994 (Cell Reports, 2021)
